Where a name gives a salt, the structure may show the parent alone. Read-outs that look alike come from different tables or passages of the source.
Columns and labels:
[1] = system: BCRP; settings: reported, Mittapalli et al.; cited from earlier work
[2] = system: WM3629 cells (BRAF D594G/NRAS G12D); assay: Proliferation assay (CellTiter-Glo) in WM3629 cells; type: cell-based; settings: 3-5 day incubation
Description: (§1) The compounds of Example 13, Example 14 and Example 126 were evaluated in a proliferation assay in two mutant BRAF Class III cell lines: NCI-H1666 (BRAF^G466V) and WM3629 cells (BRAF^D594G/NRAS^G12D). NCI-H1666 cells were obtained from the American Type Culture Collection (ATCC, Rockville, MD) and WM3629 cells were obtained from Rockland Immunochemicals (Limerick, PA). Cells were maintained in RPMI growth medium containing 10% FBS.
(§2) Cells were harvested according to standard protocols, counted, and plated onto flat-bottom, 96-well tissue culture plates (Costar #3599) at 2000-5000 cells/well in 100 μL/well of growth medium containing 10% FBS. Cells were incubated at 37° C. with 5% CO2 overnight then treated with inhibitors prepared as a 9-point, 1:3.33 fold dilution series with final compound concentrations ranging from 66 pM-10 μM and a constant DMSO concentration of 0.25%. Control wells contained 0.25% DMSO alone. After a 3-5 day incubation at 37° C., 5% CO2, cell viability was determined by adding 100 μL CellTiter-Glo® Reagent (Promega) to each well and incubated for 15 minutes at room temperature. “Day 0” controls were determined by performing CellTiter-Glo© assay on DMSO control wells at the time of compound treatment (“Day 0” control=0 POC). Luminescence was measured on a Cytation 5 plate reader (BioTek) and values were converted to POC using the following equation:
(§3) [formula] • Where: • Xmax Average DMSO Controls • Xmin Average “Day 0” DMSO Controls • IC50 values were calculated using a 4-parameter fit in XLfit software and are shown in Table A2.

[3] = system: A375 cells; assay: Cellular phospho-ERK inhibition assay in A375 cells; type: cell-based; settings: Homo sapiens, A-375, A375 cells (head prints A357), 2 hours treatment, read-out: A357 cell IC50
Outline: (§4)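 In Cell Western detection of phospho-ERK1/2 (Thr202/Tyr204) over GAPDH after 2 h compound exposure (66 pM to 10 μM, 9 points, 0.25% DMSO) of A375 cells in DMEM or H1755 cells in RPMI, both with 10% FBS. Percent of control set by DMSO and 10 μM binimetinib; 4-parameter IC50.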

[4] = MDR1 LLC-PK1 and BCRP MDCKII permeability assay: permeability coefficient (Papp); type: in vitro ADME
From the text: (§5) Final organic concentration in the assay was 1%.

[5] = system: H1755 cells; assay: Cellular phospho-ERK inhibition assay in H1755 cells; type: cell-based; settings: Homo sapiens, NCI-H1755, 2 hours treatment, read-out: H1755 Cell IC50
Outline: as §4

[6] = molecular target: P-gp (MDR1) (Homo sapiens (Human), UniProt P08183); assay: MDR1 LLC-PK1 permeability assay: efflux ratio; type: in vitro ADME; settings: pig
Sequence of P-gp (MDR1) (P08183 whole entry, species assumed): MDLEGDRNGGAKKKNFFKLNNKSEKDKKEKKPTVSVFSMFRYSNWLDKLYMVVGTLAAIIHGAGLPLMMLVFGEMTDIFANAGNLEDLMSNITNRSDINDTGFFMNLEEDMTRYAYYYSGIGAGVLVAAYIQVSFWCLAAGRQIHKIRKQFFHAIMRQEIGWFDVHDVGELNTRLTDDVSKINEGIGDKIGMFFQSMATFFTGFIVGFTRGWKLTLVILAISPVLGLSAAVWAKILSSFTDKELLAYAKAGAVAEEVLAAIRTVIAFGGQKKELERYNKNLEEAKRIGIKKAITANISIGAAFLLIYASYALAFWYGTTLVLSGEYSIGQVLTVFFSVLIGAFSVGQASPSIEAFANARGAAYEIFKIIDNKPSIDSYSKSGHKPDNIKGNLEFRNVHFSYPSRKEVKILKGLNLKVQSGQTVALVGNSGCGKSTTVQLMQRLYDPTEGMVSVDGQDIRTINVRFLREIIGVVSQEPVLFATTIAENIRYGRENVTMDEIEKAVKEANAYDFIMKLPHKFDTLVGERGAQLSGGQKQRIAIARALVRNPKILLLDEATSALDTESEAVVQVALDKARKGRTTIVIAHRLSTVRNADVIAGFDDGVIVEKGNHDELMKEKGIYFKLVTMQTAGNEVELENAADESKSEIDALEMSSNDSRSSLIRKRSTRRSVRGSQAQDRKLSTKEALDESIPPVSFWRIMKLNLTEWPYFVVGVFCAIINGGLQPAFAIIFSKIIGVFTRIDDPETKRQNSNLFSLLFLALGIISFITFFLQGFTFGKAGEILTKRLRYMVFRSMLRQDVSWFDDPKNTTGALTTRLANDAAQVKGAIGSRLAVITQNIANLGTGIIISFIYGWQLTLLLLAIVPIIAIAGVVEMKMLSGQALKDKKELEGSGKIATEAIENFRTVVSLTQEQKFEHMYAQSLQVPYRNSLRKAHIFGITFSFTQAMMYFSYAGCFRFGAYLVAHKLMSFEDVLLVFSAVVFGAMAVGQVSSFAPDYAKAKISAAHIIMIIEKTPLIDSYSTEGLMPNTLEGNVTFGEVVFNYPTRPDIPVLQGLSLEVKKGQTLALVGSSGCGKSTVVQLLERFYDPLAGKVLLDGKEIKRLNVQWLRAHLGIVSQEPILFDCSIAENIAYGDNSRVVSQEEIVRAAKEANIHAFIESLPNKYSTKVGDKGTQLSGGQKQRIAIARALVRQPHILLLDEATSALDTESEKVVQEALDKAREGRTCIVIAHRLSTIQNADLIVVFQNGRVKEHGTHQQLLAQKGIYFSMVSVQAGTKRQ
From the text: as §5

[7] = molecular target: BCRP (Homo sapiens (Human), UniProt Q9UNQ0); assay: BCRP MDCKII permeability assay: efflux ratio; type: in vitro ADME; settings: dog
Sequence of BCRP (Homo sapiens (Human), UniProt Q9UNQ0) (Q9UNQ0 whole entry): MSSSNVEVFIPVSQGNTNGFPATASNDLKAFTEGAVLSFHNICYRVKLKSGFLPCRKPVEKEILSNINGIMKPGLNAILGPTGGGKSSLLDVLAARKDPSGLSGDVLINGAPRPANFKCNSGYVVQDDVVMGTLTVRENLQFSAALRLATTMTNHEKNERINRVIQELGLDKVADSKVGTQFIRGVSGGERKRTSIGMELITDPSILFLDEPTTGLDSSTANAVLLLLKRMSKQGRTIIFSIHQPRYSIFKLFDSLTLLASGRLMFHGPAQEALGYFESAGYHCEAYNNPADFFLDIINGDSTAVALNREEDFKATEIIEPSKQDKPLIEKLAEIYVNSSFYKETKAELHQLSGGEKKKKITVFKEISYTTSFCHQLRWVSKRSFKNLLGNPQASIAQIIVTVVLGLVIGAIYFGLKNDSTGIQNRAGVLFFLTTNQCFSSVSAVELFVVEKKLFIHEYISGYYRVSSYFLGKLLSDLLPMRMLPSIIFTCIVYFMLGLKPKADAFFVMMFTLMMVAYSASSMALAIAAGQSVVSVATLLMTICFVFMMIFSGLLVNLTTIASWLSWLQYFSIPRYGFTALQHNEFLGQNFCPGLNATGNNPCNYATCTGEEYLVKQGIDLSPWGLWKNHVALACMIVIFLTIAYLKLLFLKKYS

[8] = system: WM3629 cells (BRAF D594G/NRAS G12D); assay: Cellular phospho-ERK inhibition assay in WM3629 cells; type: cell-based; settings: 1 hour treatment, read-out: IC50 WM3629 pERK
Description: as §1, with “phospho-ERK” for “proliferation”
(§6) Cells were harvested according to standard protocols, counted, and plated onto flat-bottom, 96-well tissue culture plates (Costar #3599) at 2.5×10^4 cells/well in 100 μL/well of growth medium containing 10% FBS. After an overnight incubation at 37° C. with 5% CO2 cells were treated for 1 hour at 37° C., 5% CO2 with inhibitors prepared as a 9-point, 1:3.33 fold dilution series with final compound concentrations ranging from 66 pM-10 μM and a constant DMSO concentration of 0.25%. Control wells contained either 0.25% DMSO alone (uninhibited control) or 10 μM binimetinib (complete inhibition control). The levels of phosphorylated ERK were determined using an In Cell Western protocol: following compound incubation, growth medium was discarded, and cells were fixed with 0.4% formaldehyde in PBS for 20 minutes at room temperature. Cells were permeabilized with 100% methanol for 10 minutes at room temperature. Plates were washed with PBS containing 0.05% Tween-20 and blocked for 1 hour at room temperature with LI-COR Blocking Buffer (LI-COR Biosciences; Cat. #927-40000). Plates were then incubated for 2 hours at room temperature with 50 μL of a 1:400 dilution of anti-phospho-ERK1/2 (Thr202/Tyr204) (Cell Signaling; Cat. #9101) and a 1:1000 dilution of anti-GAPDH (Millipore; Cat. #MAB374) in LI-COR blocking buffer containing 0.05% Tween-20. […] Plates were analyzed by reading on an Odyssey CLx infrared scanner. […]
(§7) [formula] • Where: • Xmax d Average Uninhibited Controls • Xmin Average Complete Inhibition Controls • IC50 values were then calculated using a 4-parameter fit in XLfit software and are shown in Table A2.

[9] = system: NCI-H1666 (BRAF G466V) cells; assay: Proliferation assay (CellTiter-Glo) in NCI-H1666 cells; type: cell-based; settings: Homo sapiens, 3-5 day incubation
Description: as §1, §2, §3

[10] = system: NCI-H1666 (BRAF G466V) cells; assay: Cellular phospho-ERK inhibition assay in NCI-H1666 cells; type: cell-based; settings: Homo sapiens, 1 hour treatment, read-out: IC50 NCI-H1666 pERK
Description: as §1, with “phospho-ERK” for “proliferation”
as §6, §7

[11] = PK (free brain-to-free plasma ratio) (mouse); type: in vivo; settings: male CD-1 mice, oral gavage 10 mg/kg, unbound brain-to-unbound plasma, read-out: B/P ratio (free)
Description: The ability of representative compounds to penetrate the BBB in mice was determined by evaluating the unbound brain-to-unbound plasma (also referred to as free brain-to-free plasma) concentration ratio in male CD-1 mice.
Brain compound levels were generated from oral mouse PK dosing with typical sampling times of 2, 4, 8, 12 and 24 hours post oral gavage dosing at 10 mg/kg. Brain samples were stored at −20±5° C. prior to analysis. Concentrations of test compound in mouse brain homogenate were determined by liquid chromatography tandem mass spectrometry (LC-MS/MS) following protein precipitation with acetonitrile. A 12-point calibration curve, ranging from 0.5 to 10,000 ng/mL, was prepared in duplicate. A solution of 400 μg/mL of test compound in dimethyl sulfoxide (DMSO) was serially diluted (3-fold) in 100% DMSO, and then 2.5 μL of each standard solution was added to 100 μL of naïve male CD-1 mice brain homogenate. To mimic the extraction in the standard curve, 2.5 μL of DMSO was added to all test samples. Both calibration and test brain homogenate samples were spiked with 10 μL of an IS (1 μg/mL of a structural analog). Brain homogenate was generated by adding 0.75 mL of 4:1 water:MeOH to each brain sample followed by homogenization for 1 minute with bead beater tubes a 6 m/s using an MP Fast Prep-24®. Proteins were precipitated from 100 μL of brain homogenate sample by the addition of 300 μL of acetonitrile. Samples were vortex-mixed for 5 minutes and spun in an Allegra X-12R centrifuge (Beckman Coulter, Fullerton, CA; SX4750A rotor) for 15 min at approximately 1,500×g at 4° C. A 100 μL aliquot of each supernatant was transferred via a 550 μL Personal Pipettor (Apricot Designs, Monrovia, CA) to 96-well plates and diluted 1:1 with HPLC grade water. The resulting plates were sealed with aluminum for LC-MS/MS analysis.
Brain-to-plasma ratios were calculated using the concentration of compound measured in the brain divided by the concentration of compound measured in the plasma. Brain-to-plasma ratios were always generated from a single animal and time point. Free brain-to-free plasma ratios were calculated by multiplying the brain-to-plasma ratio by the in vitro brain homogenate free fraction divided by the in vitro plasma free fraction using the following equation: (B/P)*(Bfu/Pfu). Table C provides the free brain-to-free plasma ratios of compounds disclosed herein.

[12] = molecular target: full-length FLAG-tagged B-Raf(V600E) (Homo sapiens (Human), UniProt P15056, V600E); assay: BRAF V600E enzyme assay (TR-FRET competitive displacement); type: binding
Sequence of full-length FLAG-tagged B-Raf(V600E) (P15056 whole entry V600E): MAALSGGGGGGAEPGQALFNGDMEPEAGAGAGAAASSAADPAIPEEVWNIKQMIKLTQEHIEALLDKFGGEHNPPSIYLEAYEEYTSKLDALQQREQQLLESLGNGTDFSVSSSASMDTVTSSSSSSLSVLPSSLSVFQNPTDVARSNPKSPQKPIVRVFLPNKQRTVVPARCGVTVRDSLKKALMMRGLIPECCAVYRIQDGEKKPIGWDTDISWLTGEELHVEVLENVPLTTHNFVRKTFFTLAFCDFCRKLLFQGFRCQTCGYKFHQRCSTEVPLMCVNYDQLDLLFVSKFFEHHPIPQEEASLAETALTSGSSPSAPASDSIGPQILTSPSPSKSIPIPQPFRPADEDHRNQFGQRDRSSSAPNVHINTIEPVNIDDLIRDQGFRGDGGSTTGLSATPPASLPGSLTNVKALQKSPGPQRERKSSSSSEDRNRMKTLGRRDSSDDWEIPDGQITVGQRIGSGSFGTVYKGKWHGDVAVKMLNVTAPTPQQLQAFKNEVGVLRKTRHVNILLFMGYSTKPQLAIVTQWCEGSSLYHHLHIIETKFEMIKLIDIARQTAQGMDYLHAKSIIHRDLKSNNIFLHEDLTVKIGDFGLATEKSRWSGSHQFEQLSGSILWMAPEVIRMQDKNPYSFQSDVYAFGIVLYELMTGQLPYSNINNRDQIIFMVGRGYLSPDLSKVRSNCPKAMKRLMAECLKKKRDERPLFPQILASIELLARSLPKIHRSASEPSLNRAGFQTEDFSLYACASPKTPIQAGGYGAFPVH
Outline: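 TR-FRET tracer competition: compound (top dose 10 μM, 3-fold, 11 points) incubated 60 min at ambient temperature with FLAG-tagged full-length B-Raf(V600E) (5 nM), Eu anti-FLAG cryptate (0.5 nM) and tracer (50 nM), pH 7.4 HEPES/MgCl2 buffer. 665/615 ratio converted to percent of control; IC50 where fitted curve crosses 50 POC.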

[13] = averaged IC50, TR-FRET tracer displacement, 60 min

SMILES	BCRP efflux ratio [1]	IC50 [2]	IC50 [3]	Papp at 2 h, 1 µM [4]	IC50 [5]	efflux ratio at 2 h, 1 µM [6]	efflux ratio at 2 h, 1 µM [7]	IC50 [8]	IC50 [9]	IC50 [10]	Kp [11]	IC50 [12]	IC50 [12, 13]
CCCS(=O)(=O)Nc1ccc(F)c(C(=O)c2c[nH]c3ncc(-c4ccc(Cl)cc4)cc23)c1F [vemurafenib]	495	–	–	–	–	–	–	–	–	–	–	–	–
CC(C)(C)c1nc(-c2cccc(NS(=O)(=O)c3c(F)cccc3F)c2F)c(-c2ccnc(N)n2)s1 [dabrafenib]	21.0	–	–	–	–	–	–	–	–	–	–	–	–
Cn1cnc2ccc(Nc3c(F)ccc(NS(=O)(=O)N4CC(F)C4)c3Cl)c(Cl)c2c1=O [Example 126, N-(2-chloro-3-((5-chloro-3-methyl-4-oxo-3,4-dihydroquinazolin-6-yl)amino)-4-fluorophenyl)-3-fluoroazetidine-1-sulfonamide]	–	> 10 µM	2 nM	44 ×10⁻⁶ cm/s	26 nM	2.1	4.2	1.4 nM	390 nM	15 nM	–	–	–
Cc1c(Oc2c(F)ccc(NS(=O)(=O)N3CC[C@@H](F)C3)c2Cl)ccc2ncn(C)c(=O)c12 [Example 70, (R)-N-(2-chloro-3-((3,5-dimethyl-4-oxo-3,4-dihydroquinazolin-6-yl)oxy)-4-fluorophenyl)-3-fluoropyrrolidine-1-sulfonamide]	–	–	14 nM	25 ×10⁻⁶ cm/s	43 nM	1.8	1	–	–	–	0.17 to 0.36	8 nM	–
Cn1cnc2ccc(Nc3c(F)c(F)cc(NS(=O)(=O)N4CCCC4)c3Cl)c(F)c2c1=O [Example 40, N-(2-chloro-4,5-difluoro-3-((5-fluoro-3-methyl-4-oxo-3,4-dihydroquinazolin-6-yl)amino)phenyl)pyrrolidine-1-sulfonamide trifluoroacetate]	–	–	4 nM	29 ×10⁻⁶ cm/s	50 nM	2	2.3	–	–	–	0.55 to 0.72	–	2 nM
Cn1cnc2ccc(Nc3c(F)ccc(NS(=O)(=O)N4CC5CC5C4)c3Cl)c(Cl)c2c1=O (centres unmarked) [Example 17, N-(2-chloro-3-((5-chloro-3-methyl-4-oxo-3,4-dihydroquinazolin-6-yl)amino)-4-fluorophenyl)-3-azabicyclo[3.1.0]hexane-3-sulfonamide]	–	–	7 nM	24 ×10⁻⁶ cm/s	80 nM	1.3	1.1	–	–	–	0.61 to 0.64	–	4 nM
CO[C@@H]1CCN(S(=O)(=O)Nc2ccc(F)c(Oc3ccc4ncn(C)c(=O)c4c3F)c2Cl)C1 [Example 48, (R)-N-(2-chloro-4-fluoro-3-((5-fluoro-3-methyl-4-oxo-3,4-dihydroquinazolin-6-yl)oxy)phenyl)-3-methoxypyrrolidine-1-sulfonamide trifluoroacetate]	–	–	1 nM	29 ×10⁻⁶ cm/s	36 nM	2.2	1.7	–	–	–	0.29 to 0.33	–	3 nM
Cn1cnc2ccc(Nc3c(F)ccc(NS(=O)(=O)N4CCCC4)c3Cl)c(F)c2c1=O [Example 7, N-(2-chloro-4-fluoro-3-((5-fluoro-3-methyl-4-oxo-3,4-dihydroquinazolin-6-yl)amino)phenyl)pyrrolidine-1-sulfonamide trifluoroacetate]	–	–	5 nM	29 ×10⁻⁶ cm/s	31 nM	1.7	2.2	–	–	–	0.37 to 0.61	–	12 nM
COCC1CN(S(=O)(=O)Nc2ccc(F)c(Nc3ccc4ncn(C)c(=O)c4c3C)c2Cl)C1 [Example 131, N-(2-chloro-3-((3,5-dimethyl-4-oxo-3,4-dihydroquinazolin-6-yl)amino)-4-fluorophenyl)-3-(methoxymethyl)azetidine-1-sulfonamide]	–	–	13 nM	55 ×10⁻⁶ cm/s	38 nM	2.1	1.7	–	–	–	0.3 to 0.5	–	16 nM
